Entries after “also recorded” stand apart in the source; their conditions may differ.
How the values were obtained:
HL-60 cells [1] = experiment: DNA fragmentation by propidium iodide flow cytometry, HL-60; type: cell-based, human; conditions: HL-60, 12.5 and 25 μM, 24 hours
Experimental: FIG. 4 depicts the detection of DNA Fragmentation. DNA cleavage in [Os3(CO)10(μ-H)(μ-S)C9H6N]-treated tumour cells was assessed using flow cytometric analysis. HL-60 cells were treated with 12.5 and 25 μM [Os3(CO)10(pt-H)(μ-S)C9H6N] for 24 hours, immediately fixed in ethanol, and stained with PI for DNA content analysis. SubG1 population indicates subdiplod DNA content indicative of apoptotic DNA fragmentation. Data shown are representative of at least three independent experiments.
For cellular DNA content determination, 1×10^6 cells/ml from each cell line were treated with [Os3(CO)10(μ-H)(μ-S)C9H6N]. After treatment, cells were washed twice with 1×PBS+1 FBS. Sample preparation and staining with PI for DNA content were performed as described elsewhere (32). […]
Fixed cells were left at 4° C. for 30 min, centrifuged at 1000×g for 5 min and washed once with 1×PBS+1% FBS. […] Stained cells were analyzed by flow cytometry with the excitation set at 488 nm and the emission set at 610 nm (red).
The ability of the cells to scatter light in a forward direction (FS) correlates with cell volume. Os drug-treated cells were analysed for changes in the intensity of FS as compared to untreated control cells. A total of 10,000 cells per sample were studied and data were analyzed by the WINMDI software.

[2] = test system: Jurkat Neo and Jurkat BCL2 cells; experiment: DNA fragmentation by PI, Jurkat Neo and Jurkat BCL2; type: cell-based; conditions: 12.5 and 25 μM, 18 hours; for DNA fragmentation / apoptosis with Bcl-2 overexpression: BCl2 overexpressing jurkat cells
Experimental: Jurkat Neo and Jurkat BCL2 cells were treated with 12.5 and 25 μM of [Os3(CO)10(μ-H)(μ-S)C9H6N] for 18 hours, immediately fixed in ethanol and stained with PI for DNA content analysis. Sub-G1 population indicates subdiploid DNA content indicative of apoptotic. The DNA fragmentation induced by [Os3(CO)10(μ-H)(μ-S)C9H6N] is inhibited in BCl2 overexpressing jurkat cells. Data shown are representative of at least three independent experiments.
For cellular DNA content determination, 1×10^6 cells/ml from each cell line were treated with [Os3(CO)10(μ-H)(μ-S)C9H6N]. After treatment, cells were washed twice with 1×PBS+1 FBS. Sample preparation and staining with PI for DNA content were performed as described elsewhere (32). Briefly, cell pellets were resuspended in 0.5 ml of 1×PBS+1% FBS and immediately fixed by adding 5 ml of 70% ethanol while vortexing to avoid clumping.
Fixed cells were left at 4° C. for 30 min, centrifuged at 1000×g for 5 min and washed once with 1×PBS+1% FBS. Cell pellets were then suspended in 0.5 ml of PI/RNAse. A solution prepared by adding 1/50 volume of PI stock and 1/40 volume of RNAse. A stock to 1×PBS+1% FBS and incubated for 30 min at 37° C. Stained cells were analyzed by flow cytometry with the excitation set at 488 nm and the emission set at 610 nm (red).

jurkat cells = experiment: Intracellular superoxide, lucigenin chemiluminescence, Jurkat; type: cell-based; conditions: 12.5 and 25 μM, 2 h and 4 h (FIG. 5A)
Experimental: (§1) (A) Jurkat cells and (B) HL-60 cells (2×10^6) were incubated with 12.5 and 25 μM [Os3(CO)10(μ-H)(μ-S)C9H6N] and […] O2^− was measured by a lucigenine-based chemiluminescence assay (C) A, cytosolic pH was determined with the pH-sensitive probe 2′,7′-bis(2-carboxyethyl)-5,6-carboxy-fluorescein.
(§2) A lucigenin-based chemiluminescence assay is routinely used in the laboratory as detailed in Clement and Pervaiz (Pervaiz S, Clement M V, Methods Enzymol. (2002) 352, 150-159). In brief, chemiluminescence was monitored using a Berthold Sirius Luminometer (Berthold Detection Systems GmbH, Bleichstralβe/Pforzheim, Germany). Data are described as relative light units/mg of protein (RLU/mg protein). Protein concentration was determined using the Coomassie Plus protein assay reagent from Pierce (Pierce Chemical Company, Rockford, Ill., USA) as detailed by the manufacturer.
(§3) This example illustrates determining whether and to what extent apoptosis induced by an osmium triangulo compound of the present invention is accompanied by an increase in intracellular ROS production. Cells were exposed to [Os3(CO)10(μ-H)(μ-S)C9H6N] for 2 h and 4 h and intracellular O2^− production was measured by a lucigenin-based chemiluminescence assay.

HL-60 cells [3] = experiment: Intracellular superoxide, lucigenin chemiluminescence, HL-60; type: cell-based, human; conditions: 12.5 and 25 μM, 2 h and 4 h (FIG. 5B)
Experimental: as §1, §2, §3

cells = experiment: Intracellular pH with BCECF; type: cell-based; conditions: FIG. 5C
Experimental: as §1
Intracellular (pHi) was measured by loading cells with […] dye BCECF (Sigma). Briefly, cells (1×10^6) before or after exposure (2-12 h at 37° C.) to [Os3(CO)10(μ-H)(μ-S)C9H6N] was washed once with HBSS, resuspended in 0.1 ml of HBSS, and loaded with […] of 1 mM BCECF at 37° C. for 30 min in the dark. Cells were then resuspended in 0.5 ml of HBSS and analyzed using a Coulter Epics Elite ESP (Coulter, Hialeah, Fla.) flow cytometer with the excitation set at 488 nm. A minimum of 10,000 events was analyzed, and the ratio of BCECF fluorescence at 525 and 610 was used to obtain intracellular pH from a pH calibration curve. […] Immediately before flow cytometry, cells were loaded with […] nigericin (1 mM stock in absolute alcohol; Sigma), and fluorescence ratio measurements (525 nm/610 nm) of cells in nigericin-containing buffers of a range of pH were then used to relate histogram channel numbers to ipH. […]

HL-60 cells [4] = experiment: Flow cytometric analysis of intracellular H2O2 (DCFH-DA); type: cell-based, human
Experimental: Cells were then loaded with DCFH-DA (5 μM) for 15 minutes and the amount of intracellular H2O2 generated was indicated by the shift in fluorescence as detected by flow cytometry.
Intracellular H2O2 was determined by staining with 2,7-dichloro-fluorescein diacetate (Molecular Probes, Eugene, Oreg.), which is oxidised to dichlorofluorescein by H2O2 described elsewhere (Hirpara, J. L., et al., J Biol. Chem. (2001) 276, 514-521). In brief, HL-60 cells were exposed to […] [Os3(CO)10(μ-H)(μ-S)C9H6N] 4 h, loaded with […] 2′,7′-dichlorofluorescein diacetate at 37° C. for […], and analysed by flow cytometry (Coulter Epics Elite ESP; excitation 488 nm). Catalase (1000 units/ml) was used to scavenge intracellular H2O2 before addition of the drugs and flow cytometric analysis of H2O2 for 4 h, followed by flow cytometry for H2O2. At least 10,000 events were analysed.

death receptor CD95 = experiment: Surface expression of CD95 by flow cytometry; type: cell-based, human; set-up: dose or concentration left out as unconfirmed; conditions: HL60 cells, 12 hours
Experimental: FIG. 8 depicts the upregulation of Cd95 by [Os3(CO)10(μ-H)(μ-S)C9H6N] in tumour cells. HL60 cells were treated with […] [Os3(CO)10(μ-H)(μ-S)C9H6N] for 12 hours and surface expression of CD95 was analysed by flow cytometry as described in Materials and Methods. The shaded histograms show unstained cells. Mouse IgG1k was used as an isotype control. At least 10,000 events were counted, and data shown are representative of at least three separate experiments.

caspases 2, 8, 9, and 3 [5] = experiment: Caspase activities (AFC substrates), HL60; type: cell-based, human; conditions: HL60 cells, within 6 hours; more pronounced than in Jurkat
Experimental: (§4) Activities of caspases 8, 2, 9, and 3 were determined in lysates of [Os3(CO)10(μ-H)(μ-S)C9H6N]-treated (A) Jurkat and (B) HL 60 cells and shown as fold increase over untreated cells.
(§5) Caspases 2, 3, 8, and 9 activities were assayed by using AFC-conjugated substrates supplied by Bio-Rad. Cells (1×10^6 cells/ml) were incubated with the drugs over a time course, washed twice with 1×PBS, resuspended in 50 μl of chilled cell lysis buffer (provided by the supplier), and incubated on ice for 10 min. 50 μl of 2× reaction buffer (10 mM HEPES, 2 mM EDTA, 10 mM KCl, 1.5 mM MgCl2, 10 mM dithiothreitol) and […] of the fluorogenic caspase-specific (VDVAD-AFC for caspase 2, DEVD-AFC for caspase 3, IETD-AFC for caspase 8, and LEHDAFC for caspase 9) were added to each sample and incubated at 37° C. for 1 h. Protease activity was determined by the relative fluorescence intensity at 505 nm following excitation at 400 nm using a spectrofluorimeter (Luminescence Spectrometer LS50B, PerkinElmer Life Sciences, Buckinghamshire, United Kingdom).

caspases 2, 8, 9, and 3 [6] = experiment: Caspase activities (AFC substrates), Jurkat; type: cell-based; conditions: Jurkat cells, within 6 hours
Experimental: as §4, §5

cytochrome C = experiment: Western blotting for cytochrome C release; type: cell-based, human; conditions: HL60 cells, 12.5 and 25 μM, 12 hours
Experimental: (§6) FIG. 12 illustrates that [Os3(CO)10(μ-H)(2-S)C9H6N] induces apoptosis through the mitochondrial pathway. HL60 cells (30×10^6) were treated with 12.5 (A) and 25 μM (B) of [Os3(CO)10(μ-H)(μ-S)C9H6N] treated for 12 hours and cytosolic and mitochondria fractions were subjected to SDS-PAGE electrophoresis, transferred to PVDF membrane, and probe with anti-Cyt.C and anti-Bax antibodies (C). Anti-βactin antibody was used to assess equal loading of samples.
Cytochrome c release was assessed by Western blot analysis of cytosolic extracts from 30×10^6 cells as described previously (Hirpara, J. L. et al., J. Biol. Chem. (2001) 276, 514-521, incorporated herein by reference in its entirety; Pervaiz et al., 1999, supra). Cytosolic fractions were obtained and analysed by Western blotting.
Briefly, cells were washed twice with ice-cold PBS, pH 7.4, followed by centrifugation at 200×g for 5 minutes. The cell pellet was then resuspended in 600 μL of extraction buffer, containing 200 mmol/L mannitol, 68 mmol/L sucrose, 50 mmol/L PIPES-KOH, pH 7.4, 50 mmol/L KCl, 5 mmol/L EGTA, 2 mmol/L MgCl2, 1 mmol/L DTT, and protease inhibitors (Complete Cocktail; Boehringer Mannheim, Mannheim, Germany). […] Signal was detected by the Super Signal Substrate Western Blotting kit (Pierce).

Bax = experiment: Western blot of Bax sub-cellular localization; type: cell-based, human; conditions: HL60 cells, 12.5 and 25 μM, 12 hours
Experimental: as §6
For analysis of poly(ADP-ribose) polymerase cleavage, lysates from 2×10^6 cells were prepared in sample buffer [50 mmol/L Tris/HCl (pH 6.8), 6 mol/L urea, 3% SDS, 0.003% Bromphenol Blue, and 6% β-mercaptoethanol] and subjected to Western blot analysis using anti-poly(ADP-ribose) polymerase (clone C-2-10, PharMingen) as described (Pervaiz et al., 199, supra). For Western blot analysis of Bax, cells (2×10^6) were lysed by adding […] of chilled 1× radioimmunoprecipitation assay buffer lysis buffer, and 50 μg of protein were subjected to 15% PAGE and transferred to polyvinylidene difluoride as above. Alternatively for analysis of Bax dimerization/multimerization, cell lysates were subjected to 10% native gel electrophoresis. […] Chemiluminescence was detected as described above.

Akt/PKB = experiment: Western blot of total Akt/PKB and Akt/PKB phosphorylation (Ser473); type: cell-based, human
Experimental: The capability of the varying doses of [Os3(CO)10(μ-H)(μ-S)C9H6N] to dephosphorylate and deactivate Akt was shown by Western blot. HL 60 cells (2×10^6) were incubated with varying doses of [Os3(CO)10(μ-H)(μ-S)C9H6N] (12.5 and 25 μM) for 2, 4, and 6 hours and cell lysates were obtained for Western blot analysis of the Akt phosphorylation status.
HL-60 cells (2×10^6) were plated in a 12 well plate followed by exposure to the drug. Cells were harvested, washed once with PBS, and then lysed with cell lysis buffer [150 mmol/L NaCl, Tris-HCl (pH 7.4), 1% NP40]. Cell lysate (200 μg) was then electrophoresed on an 8% acrylamide gel. Antibodies were used to probe for total Akt and phosphorylated Akt/PKB at the Ser473 position (Cell Signaling, Beverly, Mass.). Protein blots were probed with anti β-actin (Sigma-Aldrich, St. Louis, Mo.) to check for equal protein loading).

## [Os3(CO)10(μ-H)(μ-S)C9H6N]
HL-60 cells [1]
  percentage of sub-diploid DNA (sub-G1 fraction): increased significantly
[2]
  DNA fragmentation / apoptosis with Bcl-2 overexpression: inhibited
[2]; listed as [Os3(CO)10(μ-H)(μ-S)C9H9N]
  DNA fragmentation / apoptosis with Bcl-2 overexpression: blocked
[2]; Jurkat Neo
  DNA fragmentation (sub-G1): induces DNA fragmentation
Jurkat cells
  intracellular O2− production: early increase
HL-60 cells [3]
  intracellular O2− production: early increase
cells
  cytosolic pH: significant drop
HL-60 cells [4]; HL-60, 12.5 and 25 μM, within 4 hours
  intracellular H2O2: significant surge
HL-60 cells [4]; HL-60, catalase 1000 U/ml
  intracellular H2O2 in presence of catalase: completely blocked
Death receptor CD95
  surface expression of CD95: upregulation; also recorded: significant increase
Caspases 2, 8, 9, and 3 [5]
  activation of caspases 2, 8, 9 and 3: induces caspase activation
Caspases 2, 8, 9, and 3 [6]
  activation of caspases 2, 8, 9 and 3: induces caspase activation
Cytochrome C
  cytochrome C release: occurred in a dose dependent manner
Bax
  sub-cellular localization of Bax: no significant change
Akt/PKB; HL-60, 12.5 and 25 μM, 2, 4 and 6 hours
  total Akt signal: remained almost unchanged
Akt/PKB; HL-60, 12.5 and 25 μM, within 4 to 6 hours of exposure
  Akt phosphorylation: down regulation; also recorded: strong inhibition
